# Legend:
# [1] = test system: RPMI 8226 (multiple myeloma) human tumor cell line; assay: Cell TiterGlo cell growth inhibition (Test C); format: cell-based; conditions: 72 hours exposure, ATP content luminescence
# Experimental: The RPMI 8226 (multiple myeloma) human tumor cell line was exposed to Compound 2 (free base) (or simply referred to herein throughout as “Compound 2”) at concentrations covering a […] (0.1 nM -100 nM) with an exposure time of 72 hours and experimental endpoint of cell growth inhibition as determined by a Cell TiterGlo luminescence assay (Promega) for ATP content. At least two independent experiments were conducted. The results were plotted and trend lines were graphed. […] Exposure to Compound 2 produced exponential killing of cells in a manner consistent with potent inhibition of a critical molecular target.
# [2] = test system: Human DLD-1 Colon Tumor Xenograft Model; assay: Test D xenograft, Compound 2 free base; format: in vivo, nu/nu mice
# [3] = test system: Human HCT-15 Colon Tumor Xenograft Model; assay: Test D xenograft, Compound 2 free base; format: in vivo, nu/nu mice; conditions: for Increase in Life Span (ILS) / Tumor Growth Delay T-C / Tumor Growth Inhibition T/C (tumor volume): qod × 3 for 2 cycles
# [4] = test system: Human H460 Non-Small Cell Lung Carcinoma Tumor Xenograft Model; assay: Test D xenograft, Compound 2 free base; format: in vivo, nu/nu mice; conditions: 1.36 mg/kg/day IV, qod × 3 for 2 cycles
# Experimental: (§1) The anti-tumor activity of Compound 2 (free base) was evaluated against a variety of human tumor xenograft models. A summary of the studies, including tumor type, dosing and administration, growth inhibition, and major findings is presented below.
# [5] = test system: Human SK-MEL-3 Melanoma Tumor Xenograft Model; assay: Test D xenograft, Compound 2 free base; format: in vivo, nu/nu mice; conditions: qod × 3 for 2 cycles
# Experimental: as §1
# [6] = test system: Human 786-0 Renal Cell Tumor Xenograft Model; assay: Test D xenograft, Compound 2 free base; format: in vivo, nu/nu mice; conditions: qod × 3 for 2 cycles
# [7] = In vitro plasma binding (Example 22); format: in vitro ADME; conditions: in vitro in mouse, rat, dog, and human
# Experimental: (§2) The in vitro and in vivo activity of compound 2 and two of its metabolites (compound 5 and compound 6) were explored and compared with the activity of camptothecin Top1 inhibitors. […] In human HCT-116 colon ca, HT-29 colon ca and NCI-H460 NSCLC cells the concentration response for compound 2, compound 5 and compound 6 were the same. […] Compound 2 was administered intravenously on a QODx3 schedule for 2 cycles.
# [8] = Half-life in nude mice (Example 22); format: in vivo; conditions: for half-life: mouse, in vivo, nude mice
# Experimental: The in vitro and in vivo activity of compound 2 and two of its metabolites (compound 5 and compound 6) were explored and compared with the activity of camptothecin Top1 inhibitors. […] In human HCT-116 colon ca, HT-29 colon ca and NCI-H460 NSCLC cells the concentration response for compound 2, compound 5 and compound 6 were the same. […]. Compound 2 was administered intravenously on a QODx3 schedule for 2 cycles.
# [9] = Body weight loss across the Example 22 xenograft studies; format: in vivo, mice; conditions: all dosages IV QODx3 for 2 cycles, except the high dosages in HCT-15 and NCI-H292
# Experimental: as §2
# [10] = test system: Human LOX-IMVI Melanoma Tumor Xenograft Model; assay: Test D xenograft, Compound 2 free base; conditions: qod × 3 for 2 cycles
# [11] = test system: Human H1299 Lung Tumor Xenograft Model; assay: Test D xenograft, Compound 2 free base; conditions: qod × 3 for 2 cycles
# [12] = test system: HCT-116 human colon tumor xenograft; assay: Compound 2 after oral administration vs. the HCT-116 xenograft model
# [13] = 1 mg/kg/day IV, qod × 3 for 2 cycles
# [14] = 4 mg/kg/day IV/QODx3 for 2 cycles
# [15] = 1.36 mg/kg/day PO, qod×3 weekly for 2 cycles
# [16] = 2.72 mg/kg/day PO, qod×3 weekly for 2 cycles
# [17] = PO dosages (0.68, 1.36, 2.72 mg/kg/day, qod×3 weekly for 2 cycles)
smiles,measurement,setting,value
"CNCCn1c(=O)c2cc(OC)c(OC)cc2c2cnc3cc4c(cc3c21)OCO4 [Compound 2, 8,9-dimethoxy-2,3-methylenedioxy-5-[2-(N-methylamino)ethyl]-5H-dibenzo[c,h]1,6-naphthyridin-6-one]",IC50,[1]; read-out: IC50 concentration,3.4 nM
same,IC90,[1]; read-out: IC90 concentration,30 nM
same,Increase in Life Span (ILS),[2]; [13],1.2x
same,Tumor Growth Delay T-C,[2]; [13],8 days
same,Tumor Growth Inhibition T/C (tumor volume),[2]; [13],51.3%
same,ILS (T/C),[2]; [14],1.2x
same,TGD (T-C),[2]; [14],8 days
same,Increase in Life Span (ILS),[3]; 1 mg/kg/day IV,1.3x
same,Tumor Growth Delay T-C,[3]; 1 mg/kg/day IV,14 days
same,Tumor Growth Inhibition T/C (tumor volume),[3]; 1 mg/kg/day IV,37.1%
same,Increase in Life Span (ILS),[3]; 2 mg/kg/day IV,1.8x
same,Tumor Growth Delay T-C,[3]; 2 mg/kg/day IV,35 days
same,Tumor Growth Inhibition T/C (tumor volume),[3]; 2 mg/kg/day IV,8.6%
same,maximum body weight loss,"[3]; high dosage, IV QODx3 for 2 cycles",25.7%
same,Increase in Life Span (ILS),[4],1.8x
same,Tumor Growth Delay T-C,[4],21 days
same,Tumor Growth Inhibition T/C (tumor volume),[4],14.1%
same,Increase in Life Span (ILS),[5]; 1 mg/kg/day IV,1.5x
same,Tumor Growth Delay T-C,[5]; 1 mg/kg/day IV,15 days
same,Tumor Growth Inhibition T/C (tumor volume),[5]; 1 mg/kg/day IV,22.0%
same,Increase in Life Span (ILS),[5]; 1.36 mg/kg/day IV,2.3x
same,Tumor Growth Delay T-C,[5]; 1.36 mg/kg/day IV,35 days
same,Tumor Growth Inhibition T/C (tumor volume),[5]; 1.36 mg/kg/day IV,13.4%
same,Increase in Life Span (ILS),[5]; 1.7 mg/kg/day IV,1.9x
same,Tumor Growth Delay T-C,[5]; 1.7 mg/kg/day IV,26 days
same,Tumor Growth Inhibition T/C (tumor volume),[5]; 1.7 mg/kg/day IV,16.7%
same,Increase in Life Span (ILS),[6]; 1 mg/kg/day IV,1.2x
same,Tumor Growth Delay T-C,[6]; 1 mg/kg/day IV,10 days
same,Tumor Growth Inhibition T/C (tumor volume),[6]; 1 mg/kg/day IV,52.5%
same,Increase in Life Span (ILS),[6]; 1.36 mg/kg/day IV,1.2x
same,Tumor Growth Delay T-C,[6]; 1.36 mg/kg/day IV,10 days
same,Tumor Growth Inhibition T/C (tumor volume),[6]; 1.36 mg/kg/day IV,52.2%
same,Increase in Life Span (ILS),[6]; 1.7 mg/kg/day IV,1.4x
same,Tumor Growth Delay T-C,[6]; 1.7 mg/kg/day IV,17 days
same,Tumor Growth Inhibition T/C (tumor volume),[6]; 1.7 mg/kg/day IV,25.9%
same,plasma binding,[7],88-93%
same,half-life,[8]; ip,624 min
same,half-life,[8]; iv,306 min
same,half-life,[8]; po,216 min
same,t1/2,"[8]; tumor-bearing mice, compared with nude mice",longer
same,maximum body weight loss,[9],≤ 20%
same,Increase in Life Span (ILS),[10]; 1 mg/kg/day IV,1.1x
same,Tumor Growth Delay T-C,[10]; 1 mg/kg/day IV,2 days
same,Tumor Growth Inhibition T/C (tumor volume),[10]; 1 mg/kg/day IV,89.4%
same,Increase in Life Span (ILS),[10]; 2 mg/kg/day IV,2.8x
same,Tumor Growth Delay T-C,[10]; 2 mg/kg/day IV,25 days
same,Tumor Growth Inhibition T/C (tumor volume),[10]; 2 mg/kg/day IV,66.1%
same,Tumor Growth Inhibition T/C (tumor volume),[10]; 4 mg/kg/day IV,39.1%
same,Increase in Life Span (ILS),[11]; 1 mg/kg/day IV,1.7x
same,Tumor Growth Delay T-C,[11]; 1 mg/kg/day IV,20 days
same,Tumor Growth Inhibition T/C (tumor volume),[11]; 1 mg/kg/day IV,22.6%
same,Increase in Life Span (ILS),[11]; 1.36 mg/kg/day IV,1.8x
same,Tumor Growth Delay T-C,[11]; 1.36 mg/kg/day IV,24 days
same,Tumor Growth Inhibition T/C (tumor volume),[11]; 1.36 mg/kg/day IV,13.2%
same,Increase in Life Span (ILS),[11]; 1.7 mg/kg/day IV,2.1x
same,Tumor Growth Delay T-C,[11]; 1.7 mg/kg/day IV,34 days
same,Tumor Growth Inhibition T/C (tumor volume),[11]; 1.7 mg/kg/day IV,8.7%
same,TGD,[12]; [15],no effect on TGD
same,TGI (T/C),[12]; [15],57.6%
same,ILS,[12]; [16],1.5 fold
same,TGD (T-C),[12]; [16],18 days
same,toxic deaths,[12]; [17],no toxic deaths
same,weight loss,[12]; [17],< 20%

# From US20120004235A1, “METHODS TO TREAT CANCER” (Rutgers, The State University of New Jersey, priority 2009, published 2012)
